Results: PubChem BioAssay AID330 (DTP/NCI, 2004)
Values joined by “and” are separate entries in the source; they are usually repeats but may differ in a detail not shown here. Equal entries are not always repeated. Inconclusive results and toxic doses are left out. Rule for the calls: active = survival T/C of 150% or more; inactive = T/C below 125% in these data.

Tested on: P388 leukemia ip, CD2F1 mice, survival T/C
Assay: NCI In Vivo Anticancer Drug Screen. Data for tumor model P388 Leukemia (intraperitoneal) in CD2F1 (CDF1) mice
Settings: endpoint: median survival time, higher = longer survival
How it was run: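 Mice carrying the transplanted tumor received test compound or vehicle. Survival was recorded in each group, and the value is the treated-group measurement divided by that of the vehicle-treated control group.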

[1] = dose: 60.0 mg/kg/injection, schedule: Q01DX005 (ip), vehicle: saline with Tween-80
[2] = dose: 120.0 mg/kg/injection, schedule: Q01DX005 (ip), vehicle: saline with Tween-80
[3] = dose: 240.0 mg/kg/injection, schedule: Q01DX005 (ip), vehicle: saline with Tween-80
[4] = dose: 100.0 mg/kg/injection, schedule: Q04DX002 (ip), vehicle: saline with Tween-80
[5] = dose: 200.0 mg/kg/injection, schedule: Q04DX002 (ip), vehicle: saline with Tween-80
[6] = dose: 50.0 mg/kg/injection, schedule: Q01DX005 (ip), vehicle: saline with Tween-80
[7] = dose: 100.0 mg/kg/injection, schedule: Q01DX005 (ip), vehicle: saline with Tween-80
[8] = dose: 200.0 mg/kg/injection, schedule: Q01DX005 (ip), vehicle: saline with Tween-80
[9] = dose: 50.0 mg/kg/injection, schedule: Q01DX009 (ip), vehicle: saline with Tween-80
[10] = dose: 100.0 mg/kg/injection, schedule: Q01DX009 (ip), vehicle: saline with Tween-80
[11] = dose: 200.0 mg/kg/injection, schedule: Q01DX009 (ip), vehicle: saline with Tween-80
[12] = dose: 50.0 mg/kg/injection, schedule: Q01DX009 (ip), vehicle: Klucel (hydroxypropylcellulose) (HPC)
[13] = dose: 100.0 mg/kg/injection, schedule: Q01DX009 (ip), vehicle: Klucel (hydroxypropylcellulose) (HPC)
[14] = dose: 200.0 mg/kg/injection, schedule: Q01DX009 (ip), vehicle: Klucel (hydroxypropylcellulose) (HPC)
[15] = dose: 6.25 mg/kg/injection, schedule: Q01DX009 (ip), vehicle: saline with Tween-80
[16] = dose: 12.5 mg/kg/injection, schedule: Q01DX009 (ip), vehicle: saline with Tween-80
[17] = dose: 25.0 mg/kg/injection, schedule: Q01DX009 (ip), vehicle: saline with Tween-80
[18] = dose: 60.0 mg/kg/injection, schedule: Q01DX005 (ip), vehicle: Klucel (hydroxypropylcellulose) (HPC)
[19] = dose: 120.0 mg/kg/injection, schedule: Q01DX005 (ip), vehicle: Klucel (hydroxypropylcellulose) (HPC)
[20] = dose: 100.0 mg/kg/injection, schedule: Q01DX001 (ip), vehicle: saline with Tween-80
[21] = dose: 200.0 mg/kg/injection, schedule: Q01DX001 (ip), vehicle: saline with Tween-80
[22] = dose: 400.0 mg/kg/injection, schedule: Q01DX001 (ip), vehicle: saline with Tween-80

Measured: T/C

CCOC(=O)c1c(C)n(C)c2c1nnc1ccccc12
inactive: [1] 98 % of control | [2] 90 % of control | [3] 86 % of control

CSc1nc2c(=S)[nH]cnc2s1
inactive: [4] 95 % of control | [5] 92 % of control | dose: 400.0 mg/kg/injection, schedule: Q04DX002 (ip), vehicle: saline with Tween-80 92 % of control

COC(=O)C(CC(C)C)NC(=O)C(Cc1cnc[nH]1)NC(=O)C(CS)N(C(=O)OCc1ccccc1)C(=O)OCc1ccccc1 (stereo not given)
inactive: [6] 99 % of control | [7] 98 % of control | [8] 100 % of control

Cc1ccc(NC(=O)Oc2cc(C)c(I)cc2C)cc1Cl
inactive: [9] 112 % of control | [10] 112 % of control | [11] 95 % of control

NC(CC(=O)c1ccc(O)cc1)C(=O)O (stereo not given)
inactive: [12] 99 % of control | [13] 100 % of control | [14] 92 % of control

O=C(Cc1ccccc1)C(Br)C(Br)c1ccccc1 (stereo not given)
inactive: [15] 100 % of control | [16] 118 % of control | [17] 113 % of control

Cc1cc(NCCCN(C)C)c2ccc3cc4ccccc4cc3c2n1
inactive: dose: 25.0 mg/kg/injection, schedule: Q04DX002 (ip), vehicle: saline with Tween-80 93 % of control | dose: 50.0 mg/kg/injection, schedule: Q04DX002 (ip), vehicle: saline with Tween-80 92 % of control | [4] 108 % of control and 94 % of control

CCOC(=O)C1=NN2C(O)C3(C)CC(C(=O)OCC)=NN3C(O)C2(C)C1 (stereo not given)
inactive: dose: 50.0 mg/kg/injection, schedule: Q01DX009 (ip), vehicle: saline 105 % of control | dose: 100.0 mg/kg/injection, schedule: Q01DX009 (ip), vehicle: saline 107 % of control | dose: 200.0 mg/kg/injection, schedule: Q01DX009 (ip), vehicle: saline 99 % of control

Cn1ncc2c(Nc3ccc(F)cc3)c3ccccc3nc21
inactive: [18] 97 % of control | [19] 95 % of control | dose: 240.0 mg/kg/injection, schedule: Q01DX005 (ip), vehicle: Klucel (hydroxypropylcellulose) (HPC) 90 % of control

CC1COC(O)(C2OCOC(C3CC(=O)NC(=O)C3)C2O)C1C (stereo not given)
inactive: dose: 0.01 mg/kg/injection, schedule: Q01DX009 (ip), vehicle: distilled water + alcohol 100 % of control | dose: 0.03 mg/kg/injection, schedule: Q01DX009 (ip), vehicle: distilled water + alcohol 102 % of control | dose: 0.06 mg/kg/injection, schedule: Q01DX009 (ip), vehicle: distilled water + alcohol 102 % of control | dose: 0.12 mg/kg/injection, schedule: Q01DX009 (ip), vehicle: distilled water + alcohol 102 % of control

CC(C)(C)N1CCC1C(=O)O (stereo not given)
inactive: [9] 92 % of control | [10] 94 % of control | [11] 88 % of control | dose: 400.0 mg/kg/injection, schedule: Q01DX009 (ip), vehicle: saline with Tween-80 87 % of control

N#Cc1nc(CC(=O)c2ccncc2)c(CC(=O)c2ccncc2)nc1C#N
inactive: dose: 60.0 mg/kg/injection, schedule: Q01DX005 (ip), vehicle: saline 109 % of control | dose: 120.0 mg/kg/injection, schedule: Q01DX005 (ip), vehicle: saline 106 % of control | dose: 240.0 mg/kg/injection, schedule: Q01DX005 (ip), vehicle: saline 97 % of control

Cc1nc(-c2ccccc2-n2cccc2)no1
inactive: [9] 104 % of control | [10] 102 % of control

COc1cc(-c2coc3c4c(ccc3c2=O)OC(C)(C)C=C4)c(OC)c2c1OCO2
inactive: dose: 10.0 mg/kg/injection, schedule: Q01DX009 (ip), vehicle: other 111 % of control | dose: 20.0 mg/kg/injection, schedule: Q01DX009 (ip), vehicle: other 102 % of control | dose: 40.0 mg/kg/injection, schedule: Q01DX009 (ip), vehicle: other 123 % of control

CN(C)C(=S)S
inactive: [12] 102 % of control | [13] 100 % of control | [14] 105 % of control | dose: 400.0 mg/kg/injection, schedule: Q01DX009 (ip), vehicle: Klucel (hydroxypropylcellulose) (HPC) 114 % of control

CC/C(=C(\CC)c1ccc(OCCN(C)C)cc1)c1ccc(OCCN(C)C)cc1
inactive: dose: 6.25 mg/kg/injection, schedule: Q01DX005 (ip), vehicle: saline 104 % of control | dose: 12.5 mg/kg/injection, schedule: Q01DX005 (ip), vehicle: saline 98 % of control

CC1(C)NC(=O)c2cccnc2S1
inactive: [1] 89 % of control | [2] 97 % of control | [3] 99 % of control

CCOC(=O)C(=O)Nc1ccccc1C#N
inactive: dose: 50.0 mg/kg/injection, schedule: Q01DX009 (ip), vehicle: saline + alcohol 105 % of control | dose: 100.0 mg/kg/injection, schedule: Q01DX009 (ip), vehicle: saline + alcohol 99 % of control | dose: 200.0 mg/kg/injection, schedule: Q01DX009 (ip), vehicle: saline + alcohol 101 % of control

CC(C)=CCc1ccc2c(c1)CCCN2C
inactive: [4] 108 % of control | [5] 108 % of control

CN(C)c1ccc(/C=C2\SC(=S)N(CCCN3CCOCC3)C2=O)cc1
inactive: [9] 91 % of control | [10] 90 % of control | [11] 87 % of control

CCOC(=O)c1cc2ccccc2c(-c2ccccc2)c1C(=O)OCC
inactive: [20] 97 % of control | [21] 96 % of control | [22] 90 % of control

CC1(C)O[Se](=O)OC1(C)C
inactive: dose: 1.56 mg/kg/injection, schedule: Q04DX003 (ip), vehicle: saline 103 % of control | dose: 3.12 mg/kg/injection, schedule: Q04DX003 (ip), vehicle: saline 98 % of control | dose: 6.25 mg/kg/injection, schedule: Q04DX003 (ip), vehicle: saline 90 % of control

O=C(O)CN(CC(=O)O)Cc1cc2c(c(O)c1O)C(=O)c1ccccc1C2=O
inactive: [15] 97 % of control | [16] 101 % of control | [17] 93 % of control | [10] 100 % of control | [11] 100 % of control

Nc1nnc2nc(CC(=O)c3cccc([N+](=O)[O-])c3Cl)c(=O)[nH]n12
inactive: dose: 15.0 mg/kg/injection, schedule: Q01DX005 (ip), vehicle: saline with Tween-80 106 % of control | dose: 30.0 mg/kg/injection, schedule: Q01DX005 (ip), vehicle: saline with Tween-80 98 % of control | [1] 100 % of control and 103 % of control

COc1cc(O)c2c(c1O)C1(C)C(=O)CCCC1(O)CC2=O (stereo not given)
inactive: [20] 90 % of control | [21] 100 % of control | [22] 100 % of control

COc1ccc2nc3cc(Cl)ccc3c(Nc3ccc(S(=O)(=O)Nc4nccs4)cc3)c2c1
inactive: [6] 94 % of control | [7] 105 % of control | [8] 97 % of control

O=S(=O)(c1cc(Cl)c(Cl)cc1Cl)N(CCCCCN(S(=O)(=O)c1cc(Cl)c(Cl)cc1Cl)S(=O)(=O)c1cc(Cl)c(Cl)cc1Cl)S(=O)(=O)c1cc(Cl)c(Cl)cc1Cl
inactive: [18] 91 % of control | [19] 91 % of control

COc1cccc(C(=O)CC[N+](C)(C)C)c1
inactive: dose: 3.13 mg/kg/injection, schedule: Q01DX009 (ip), vehicle: saline with Tween-80 100 % of control | [15] 102 % of control | [16] 103 % of control
